# Reference: PMC5007552, “The hVps34‐SGK3 pathway alleviates sustained PI3K/Akt inhibition by stimulating mTORC1 and tumour growth” (The EMBO Journal, 2016)
# Values joined by “and” are separate entries in the source; they are usually repeats but may differ in a detail not shown here. Equal entries are not always repeated.
# Tested on: ZR-75-1 cells
# Assay: NanoString human kinome mRNA quantification
# Type: cell-based
# From the text: Human mRNAs were hybridised to NanoString human kinome and control code sets, then subjected to quantification using NanoString software. […] To permit data compaction, and simple kinome‐wide comparisons, the fold changes are log2 transformed. […] Cell pellets were resuspended at a concentration of ~6,500 cells/μl in RLT buffer (Qiagen). […] For total copy numbers, triplicate normalised count values were averaged, and to calculate fold induction, means were divided by triplicate mean values from matched DMSO controls. P‐values were calculated using unpaired t‐test (GraphPad Prism software) by employing treated and control count data for each kinase mRNA.
smiles,measurement,setting,value
NC1(c2ccc(-c3nc4ccn5c(=O)[nH]nc5c4cc3-c3ccccc3)cc2)CCC1 [MK-2206],Normalised counts HIPK1,"HIPK1 mRNA, single replicates",558.67 and 555.89 and 631.82
same,Average normalised counts HIPK2,"HIPK2 mRNA, average of 3 replicates",697.1
same,Normalised counts HIPK2,"HIPK2 mRNA, single replicates",690.47 and 698.36 and 702.47
same,Average normalised counts HIPK3,"HIPK3 mRNA, average of 3 replicates",924.78
same,Normalised counts HIPK3,"HIPK3 mRNA, single replicates",914.99 and 915.54 and 943.81
same,Average normalised counts HIPK4,"HIPK4 mRNA, average of 3 replicates",8.793
same,Normalised counts HIPK4,"HIPK4 mRNA, single replicates",13.29 and 6.84 and 6.25
same,Average normalised counts HSPB8,"HSPB8 mRNA, average of 3 replicates",703.253
same,Normalised counts HSPB8,"HSPB8 mRNA, single replicates",670.48 and 739.19 and 700.09
same,Average normalised counts HUNK,"HUNK mRNA, average of 3 replicates",120.407
same,Normalised counts HUNK,"HUNK mRNA, single replicates",115.1 and 122.38 and 123.74
same,Average normalised counts HUS1,"HUS1 mRNA, average of 3 replicates",872.423
same,Normalised counts HUS1,"HUS1 mRNA, single replicates",841.36 and 886.88 and 889.03
same,Average normalised counts IGF1R,"IGF1R mRNA, average of 3 replicates",2361.57
same,Normalised counts IGF1R,"IGF1R mRNA, single replicates",2300.25 and 2376.77 and 2407.7
same,Average normalised counts IKBKB,"IKBKB mRNA, average of 3 replicates",768.703
same,Normalised counts IKBKB,"IKBKB mRNA, single replicates",749.55 and 764.38 and 792.18
same,Average normalised counts IKBKE,"IKBKE mRNA, average of 3 replicates",224.477
same,Normalised counts IKBKE,"IKBKE mRNA, single replicates",217.95 and 203.13
same,Average normalised counts ILK,"ILK mRNA, average of 3 replicates",435.073
same,Normalised counts ILK,"ILK mRNA, single replicates",419.6 and 422.1 and 463.52
same,Average normalised counts INSR,"INSR mRNA, average of 3 replicates",414.107
same,Normalised counts INSR,"INSR mRNA, single replicates",395.06 and 455.98 and 391.28
same,Average normalised counts INSRR,"INSRR mRNA, average of 3 replicates",3.12
same,Normalised counts INSRR,"INSRR mRNA, single replicates",2.39 and 5.97 and 1
same,Average normalised counts IRAK1,"IRAK1 mRNA, average of 3 replicates",1144.48
same,Normalised counts IRAK1,"IRAK1 mRNA, single replicates",1168.59 and 1134.47 and 1130.37
same,Average normalised counts IRAK2,"IRAK2 mRNA, average of 3 replicates",17.2833
same,Normalised counts IRAK2,"IRAK2 mRNA, single replicates",12.38 and 18.13 and 21.34
same,Average normalised counts IRAK3,"IRAK3 mRNA, average of 3 replicates",4.617
same,Normalised counts IRAK3,"IRAK3 mRNA, single replicates",3.29 and 5.1 and 5.46
same,Average normalised counts IRAK4,"IRAK4 mRNA, average of 3 replicates",506.37
same,Normalised counts IRAK4,"IRAK4 mRNA, single replicates",495.95 and 488.99 and 534.17
same,Average normalised counts ITK,"ITK mRNA, average of 3 replicates",1.763
same,Normalised counts ITK,"ITK mRNA, single replicates",3.29 and 1 (2×)
same,Average normalised counts JAK1,"JAK1 mRNA, average of 3 replicates",943.323
same,Normalised counts JAK1,"JAK1 mRNA, single replicates",967.71 and 921.63 and 940.63
same,Average normalised counts JAK2,"JAK2 mRNA, average of 3 replicates",378.063
same,Normalised counts JAK2,"JAK2 mRNA, single replicates",379.61 and 384.74 and 369.84
same,Average normalised counts JAK3,"JAK3 mRNA, average of 3 replicates",2.113
same,Normalised counts JAK3,"JAK3 mRNA, single replicates",1.48 and 3.37 and 1.49
same,Average normalised counts KALRN,"KALRN mRNA, average of 3 replicates",1
same,Normalised counts KALRN,"KALRN mRNA, single replicates",1
same,Average normalised counts KDR,"KDR mRNA, average of 3 replicates",1.163
same,Normalised counts KDR,"KDR mRNA, single replicates",1 (2×) and 1.49
same,Average normalised counts KIAA1804,"KIAA1804 mRNA, average of 3 replicates",209.647
same,Normalised counts KIAA1804,"KIAA1804 mRNA, single replicates",226.9 and 199.7 and 202.34
same,Average normalised counts KIT,"KIT mRNA, average of 3 replicates",1
same,Normalised counts KIT,"KIT mRNA, single replicates",1
same,Average normalised counts KSR1,"KSR1 mRNA, average of 3 replicates",15.5767
same,Normalised counts KSR1,"KSR1 mRNA, single replicates",14.2 and 11.19 and 21.34
same,Average normalised counts KSR2,"KSR2 mRNA, average of 3 replicates",58.27
same,Normalised counts KSR2,"KSR2 mRNA, single replicates",61.47 and 55.49 and 57.85
same,Average normalised counts LATS1,"LATS1 mRNA, average of 3 replicates",1079.17
same,Normalised counts LATS1,"LATS1 mRNA, single replicates",1068.6 and 1080.61 and 1088.29
same,Average normalised counts LATS2,"LATS2 mRNA, average of 3 replicates",223.537
same,Normalised counts LATS2,"LATS2 mRNA, single replicates",222.36 and 229.24 and 219.01
same,Average normalised counts LCK,"LCK mRNA, average of 3 replicates",1
same,Normalised counts LCK,"LCK mRNA, single replicates",1
same,Average normalised counts LIMK1,"LIMK1 mRNA, average of 3 replicates",487.24
same,Normalised counts LIMK1,"LIMK1 mRNA, single replicates",499.59 and 471.62 and 490.51
same,Average normalised counts LMTK2,"LMTK2 mRNA, average of 3 replicates",633.213
same,Normalised counts LMTK2,"LMTK2 mRNA, single replicates",615.03 and 621.04 and 663.57
same,Average normalised counts LMTK3,"LMTK3 mRNA, average of 3 replicates",14.4067
same,Normalised counts LMTK3,"LMTK3 mRNA, single replicates",19.66 and 8.58 and 14.98
same,Average normalised counts LRRK1,"LRRK1 mRNA, average of 3 replicates",204.153
same,Normalised counts LRRK1,"LRRK1 mRNA, single replicates",193.27 and 214.47 and 204.72
same,Average normalised counts LRRK2,"LRRK2 mRNA, average of 3 replicates",465.12
same,Normalised counts LRRK2,"LRRK2 mRNA, single replicates",461.41 and 439.47 and 494.48
same,Average normalised counts LTK,"LTK mRNA, average of 3 replicates",1
same,Normalised counts LTK,"LTK mRNA, single replicates",1
same,Average normalised counts LYN,"LYN mRNA, average of 3 replicates",10.41
same,Normalised counts LYN,"LYN mRNA, single replicates",11.48 and 10.32 and 9.43
same,MAK Normalised counts Average,"MAK mRNA, average of 3",7.77
same,MAK Normalised counts (single replicates),"MAK mRNA, replicates 1-3",7.84 and 6.84 and 8.63
same,MAP2K1 Normalised counts Average,"MAP2K1 mRNA, average of 3",1481.58
same,MAP2K1 Normalised counts (single replicates),"MAP2K1 mRNA, replicates 1-3",1469.45 and 1465.46 and 1509.84
same,MAP2K2 Normalised counts Average,"MAP2K2 mRNA, average of 3",2403.01
same,MAP2K2 Normalised counts (single replicates),"MAP2K2 mRNA, replicates 1-3",2394.14 and 2328.31
same,MAP2K3 Normalised counts Average,"MAP2K3 mRNA, average of 3",410.613
same,MAP2K3 Normalised counts (single replicates),"MAP2K3 mRNA, replicates 1-3",415.06 and 378.66 and 438.12
same,MAP2K4 Normalised counts Average,"MAP2K4 mRNA, average of 3",708.25
same,MAP2K4 Normalised counts (single replicates),"MAP2K4 mRNA, replicates 1-3",670.48 and 728.77 and 725.5
same,MAP2K5 Normalised counts Average,"MAP2K5 mRNA, average of 3",322.173
same,MAP2K5 Normalised counts (single replicates),"MAP2K5 mRNA, replicates 1-3",317.8 and 316.98 and 331.74
same,MAP2K6 Normalised counts Average,"MAP2K6 mRNA, average of 3",279.153
